Molecules are shown by their SMILES.

The target of one assay is T1, hT2R54 (Homo sapiens, UniProt P59534).
T1 construct: expressed in transfected cells; it overexpresses a promiscuous G protein
T1 sequence (P59534 1-338): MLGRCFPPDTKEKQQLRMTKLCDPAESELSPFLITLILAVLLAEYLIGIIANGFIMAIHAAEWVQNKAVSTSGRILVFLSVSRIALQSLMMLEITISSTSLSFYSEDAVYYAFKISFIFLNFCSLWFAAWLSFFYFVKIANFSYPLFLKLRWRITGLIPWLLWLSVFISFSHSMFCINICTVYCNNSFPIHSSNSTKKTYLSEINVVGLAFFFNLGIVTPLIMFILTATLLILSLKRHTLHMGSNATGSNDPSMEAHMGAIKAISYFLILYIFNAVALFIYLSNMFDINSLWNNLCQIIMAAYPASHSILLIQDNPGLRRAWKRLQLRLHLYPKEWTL
Put plainly: Cell-based assay for measuring hT2R54 inhibition (FLIPR calcium, Fluo4AM, acetaminophen as bitter agonist). The following applies: Table 4; cells stably expressing hT2R54 and a promiscuous G protein; read-out: hT2R54 IC50. The protocol: Cells stably expressing hT2R54 and a promiscuous G protein were seeded in 384 well plates 24 hours prior to the experiment. Cells were loaded with the calcium indicator Fluo4AM, washed and loaded in a FLIPR instrument with a compound plate containing increasing doses of acetaminophen in quadruplicates and prepared at 2× of final concentration. Baseline was recorded for 10 seconds, then 25 μl of […] was added onto 25 μl of cells and resulting changes in fluorescence were monitored over an additional 3 minutes. The host cell line overexpressing the G protein but not hT2R54 was treated as described above.
The ability of a test compound that blocks bitter taste elicited through hT2R54 was measured in this assay, as follows. Cells stably expressing hT2R54 and a promiscuous G protein were seeded in 384 well plates 24 hours prior to the experiment. Cells were loaded with the calcium indicator Fluo4AM, washed and loaded in a FLIPR instrument with a compound plate containing increasing doses of acetaminophen in buffer and increasing doses of acetaminophen with depicted fixed concentrations of Cmpd 109 (Table 4). Base line was recorded for 10 seconds, then 25 μl of compound and compound mixtures were added onto 25 μl of cells and resulting changes in fluorescence were monitored over an additional 3 minutes. The concentration of test compound that blocks half of the response when the bitter compound alone is present is presented as the EC50 or IC50 value.
In the examples above, the EC50 of compounds for blocking bitter taste elicited through T2R54 was measured in the same manner.
Regarding `CC(=O)c1cc2c(cc1NC(=O)C(C)(C)N1CCOCC1)OCO2` [compound 111, N-(6-Acetylbenzo[d][1,3]dioxol-5-yl)-2-methyl-2-morpholinopropanamide], the IC50 was found to be 207 nM. Turning to `CCOC(=O)[C@@H]1CCCN1CC(=O)Nc1cc2c(cc1C(C)=O)OCO2` [compound 112, Ethyl (2-((6-acetylbenzo[d][1,3]dioxol-5-yl)amino)-2-oxoethyl)-L-prolinate], the IC50 was 206 nM.

As for `CCOC(=O)C1CCCCN1CC(=O)Nc1cc2c(cc1C(C)=O)OCO2` (stereo not shown) [compound 113, Ethyl 1-(2-((6-Acetylbenzo[d][1,3]dioxol-5-yl)amino)-2-oxoethyl)piperidine-2-carboxylate], the half-inhibitory concentration (IC50) is 78 nM. For the compound `CCOC(=O)C1CCN(CC(=O)Nc2cc3c(cc2C(C)=O)OCO3)C1` (stereo not shown) [compound 114, Ethyl 1-(2-((6-acetylbenzo[d][1,3]dioxol-5-yl)amino)-2-oxoethyl)pyrrolidine-3-carboxylate], the IC50 amounted to 61 nM. On the same count and under the same terms, as for `CCOC(=O)C1CCCN(CC(=O)Nc2cc3c(cc2C(C)=O)OCO3)C1` (stereo not shown) [compound 115, Ethyl 1-(2-((6-Acetylbenzo[d][1,3]dioxol-5-yl)amino)-2-oxoethyl)piperidine-3-carboxylate], the figure is 9 nM; as for `CCOC(=O)C1CCN(CC(=O)Nc2cc3c(cc2C(C)=O)OCO3)CC1` [compound 116, Ethyl 1-(2-((6-acetylbenzo[d][1,3]dioxol-5-yl)amino)-2-oxoethyl)piperidine-4-carboxylate], 103 nM. With `CCOC(=O)C1CCCN(CC(=O)Nc2cc3c(cc2OC)OCO3)C1` (stereo not shown) [compound 117, Ethyl 1-(2-((6-Methoxybenzo[d][1,3]dioxol-5-yl)amino)-2-oxoethyl)piperidine-3-carboxylate], the IC50 was found to be 188 nM. With `CCOC(=O)C1CCCN(CC(=O)Nc2cc3c(cc2C(C)=O)OCCO3)C1` (stereo not shown) [compound 118, Ethyl 1-(2-((7-Acetyl-2,3-dihydrobenzo[b][1,4]dioxin-6-yl)amino)-2-oxoethyl)piperidine-3-carboxylate], the IC50 was 24 nM. Same read-out and setting: to `CC(=O)c1cc2c(cc1NC(=O)CN1CC(C)OC(C)C1)OCO2` (stereo not shown) [compound 119] belongs 246 nM.

As for `CC(=O)c1cc2c(cc1NC(=O)CN1CCC(O)CC1)OCO2` [compound 120], the IC50 is < 10 nM. In the case of `COC1CCN(CC(=O)Nc2cc3c(cc2C(C)=O)OCO3)CC1` [compound 121], the IC50 came out at 65 nM. Consider `CC(=O)c1cc2c(cc1NC(=O)CN1CCCC(O)C1)OCO2` (stereo not shown) [compound 122], for which the IC50 is < 20 nM.

Regarding `COC1CCCN(CC(=O)Nc2cc3c(cc2C(C)=O)OCO3)C1` (stereo not shown) [compound 123], the IC50 was found to be 2 nM. In the case of `COC1CCN(C(C)(C)C(=O)Nc2cc3c(cc2C(C)=O)OCO3)CC1` [compound 124], the IC50 is 2140 nM.

As to `COC(=O)C1CCN(CC(=O)Nc2cc3c(cc2C(C)=O)OCO3)CC1` [compound 125], the IC50 came to 100 nM. Regarding `COC(=O)C1CN(CC(=O)Nc2cc3c(cc2C(C)=O)OCO3)CCC1=O` (stereo not shown) [compound 126], the IC50 was 154 nM. Take `CCOC(=O)C1CN(CC(=O)Nc2cc3c(cc2C(C)=O)OCO3)CCO1` (stereo not shown) [compound 127]: the IC50 amounted to 13 nM.

As for `CCOC(=O)C1COCCN1CC(=O)Nc1cc2c(cc1C(C)=O)OCO2` (stereo not shown) [compound 128], the IC50 was 79 nM.

Turning to `CC(=O)c1cc2c(cc1NC(=O)CN1CCN(C(=O)OC(C)(C)C)CC1)OCO2` [compound 129], the IC50 is < 1000 nM. `CC(=O)c1cc2c(cc1NC(=O)CN(C)C1CCCCC1)OCO2` [compound 130]: the IC50 is 312 nM. For `CCN(CCOC)CC(=O)Nc1cc2c(cc1C(C)=O)OCO2` [compound 131], the IC50 is 2000 nM. Consider `COC(=O)CN(C)CC(=O)Nc1cc2c(cc1C(C)=O)OCO2` [compound 132], for which the IC50 came out at 659 nM. Take `CCOC(=O)CCN(C)CC(=O)Nc1cc2c(cc1C(C)=O)OCO2` [compound 133]: the IC50 was determined as 113 nM. As to `CC(=O)c1cc2c(cc1NC(=O)CN(C)CCC(=O)N(C)C)OCO2` [compound 134], the IC50 is 960 nM. With `CCNC(=O)CCN(C)CC(=O)Nc1cc2c(cc1C(C)=O)OCO2` [compound 135], the IC50 was determined as 500 nM.

Take `CCOC(=O)CCN(CC)CC(=O)Nc1cc2c(cc1C(C)=O)OCO2` [compound 136]: the IC50 came to 179 nM. For `CCOC(=O)[C@@H]1CCCC[C@H]1N(C)CC(=O)Nc1cc2c(cc1C(C)=O)OCO2` [compound 137], the IC50 is 2830 nM.

On to `CC(=O)c1cc2c(cc1NC(=O)CN(C)C1CCCN(C(=O)OC(C)(C)C)C1)OCO2` (stereo not shown) [compound 138], for which the IC50 came out at 150 nM.

For `CC(=O)c1cc2c(cc1NC(=O)CNC1CCN(C(=O)OC(C)(C)C)CC1)OCO2` [compound 139], the IC50 stood at 176 nM.

As for `CC(=O)c1cc2c(cc1NC(=O)CN(C)C1CCN(C(=O)OC(C)(C)C)CC1)OCO2` [compound 140], the IC50 came to 433 nM. `CCOC(=O)C1CCC(N(C)CC(=O)Nc2cc3c(cc2C(C)=O)OCO3)CC1` (stereo not shown) [compound 141]: the IC50 stood at 168 nM. In the case of `CCOC(=O)CCN(C)CC(=O)Nc1cc2c(cc1OC)OCO2` [compound 142], the IC50 worked out at 230 nM. Same read-out and setting: as for `COc1cc2c(cc1NC(=O)CN1CCOCC1)OCO2` [compound 143], the figure is 142 nM; as for `COc1cc2c(cc1NC(=O)CN1CCCC(O)C1)OCO2` (stereo not shown) [compound 144], < 2000 nM; as for `COc1cc2c(cc1NC(=O)CN1CCCC(OC)C1)OCO2` (stereo not shown) [compound 145], 575 nM. Turning to `COc1cc2c(cc1NC(=O)CN1CCC(O)CC1)OCO2` [compound 146], the IC50 was < 2000 nM.

Regarding `COc1cc2c(cc1NC(=O)CN1CCC(OC)CC1)OCO2` [compound 147], the IC50 was found to be 448 nM.

As to `COc1cc2c(cc1NC(=O)CN1CCN(C(=O)OC(C)(C)C)CC1)OCO2` [compound 148], the IC50 was < 2000 nM. Turning to `COc1cc2c(cc1NC(=O)CN1CCCc3cccc(F)c31)OCO2` [compound 149], the IC50 was 885 nM. On the same count and under the same terms, to `COc1cc2c(cc1NC(=O)CN1CCc3ccccc31)OCO2` [compound 150] belongs 393 nM; to `CCOC(=O)C1CCCN(CC(=O)Nc2cc3c(cc2Cl)OCCO3)C1` (stereo not shown) [compound 151], 152 nM; to `CC(=O)c1cc2c(cc1NC(=O)CN1CCOCC1)OCCO2` [compound 152], 630 nM.

Consider `CCOC(=O)C1CCN(CC(=O)Nc2cc3c(cc2C(C)=O)OCCO3)CC1` [compound 153], for which the IC50 is 24 nM.

Still in this assay, the particulars now being: Table 5; cells stably expressing hT2R54 and a promiscuous G protein; read-out: hT2R54 IC50.
As to `CNC(=O)C1CCCN(CC(=O)Nc2cc3c(cc2C(C)=O)OCO3)C1` (stereo not shown) [compound 154, 1-(2-((6-Acetylbenzo[d][1,3]dioxol-5-yl)amino)-2-oxoethyl)-N-methylpiperidine-3-carboxamide], the IC50 was 24 nM. Take `CCNC(=O)C1CCCN(CC(=O)Nc2cc3c(cc2C(C)=O)OCO3)C1` (stereo not shown) [compound 155]: the IC50 was found to be 210 nM.

With `CC(=O)c1cc2c(cc1NC(=O)CN1CCCC(C(=O)NCc3ccccc3)C1)OCO2` (stereo not shown) [compound 156], the IC50 came out at 114 nM. With `CC(=O)c1cc2c(cc1NC(=O)CN1CCCC(C(=O)Nc3ccccc3)C1)OCO2` (stereo not shown) [compound 157], the IC50 came to 565 nM. Take `CC(=O)c1cc2c(cc1NC(=O)CN1CCCC(C(=O)N(C)C)C1)OCO2` (stereo not shown) [compound 158]: the IC50 is 107 nM. As to `CC(=O)c1cc2c(cc1NC(=O)CN1CCCC(C(=O)N3CCOCC3)C1)OCO2` (stereo not shown) [compound 159], the IC50 came to 497 nM.

In general, IC50 refers to the point on the concentration scale where inhibition reaches its midpoint.

Values taken from patent US12295396B2, “Antagonists of T2R54 and compositions and uses thereof” (Firmenich Incorporated, priority 2018, dated 2025).
